Experimental data reported in publication PMC9851200, “Multiparameter phenotypic screening for endogenous TFEB and TFE3 translocation identifies novel chemical series modulating lysosome function” (Autophagy, 2022).
Read-outs that look alike come from different tables or passages of the source.

Columns and labels:
Details in all cases: PKIS2 primary screening
[1] = test system: SH-SY5Y cells; also: reference of the scale not given here
[2] = test system: endogenous TFEB; assay: TFEB nuclear translocation, immunocytochemistry high-content imaging; format: cell-based
[3] = test system: endogenous TFE3; assay: TFE3 nuclear translocation, immunocytochemistry high-content imaging; format: cell-based
[4] = test system: SH-SY5Y cells; assay: AK (adenylate kinase) release ToxiLight cytotoxicity assay; also: reference of the scale not given here
[5] = test system: SH-SY5Y cells; assay: Nuclear count from microscopy images (cellular growth and toxicity); also: reference of the scale not given here

SMILES | DQ Intensity ([1]; DQ Red BSA intensity) | DQ Spot ([1]; DQ Red BSA spot count) | TFEB % [2] [%] | TFE3 % [3] [%] | AK [4] | Nuclear Count [5] | DQ Intensity [1] | DQ Spot [1]
COc1ccc(CNC(=O)NC2CCN(c3ccnc(Nc4ccc(F)cc4)n3)C2)cc1 (stereo not drawn) [GSK1379706] | 67.21 | 81.58 | 2.94 | 11.64 | 89.40 | 119.74 | – | –
Fc1ccc(-c2ncn(CCCN3CCOCC3)c2-c2cccnc2)cc1 [UNC10225320A] | 94.06 | 100.66 | 7.10 | 16.30 | 125.08 | 104.41 | – | –
COc1ccc(Nc2nccc(NCCNC(=O)c3cc4ccccc4s3)n2)cc1 [GSK1379896] | 100.56 | 107.99 | 5.04 | 17.76 | 100.12 | 88.87 | – | –
Cc1ccc(NC(=O)Nc2cccc(Cl)c2)cc1-c1ccc(C(=O)Nc2ccncc2)cc1 [UNC10225019A] | – | – | 7.29 | 11.19 | 95.29 | 106.82 | 128.25 | 121.60
Cc1ccc(Nc2ccnc(Nc3ccc(C)c(F)c3)n2)cc1O [GW582868] | 80.99 | 94.80 | 8.86 | 12.77 | 95.37 | 87.67 | – | –
COC(=O)C(NC(=O)NC1CCN(c2ccnc(Nc3ccc(F)cc3)n2)C1)c1ccccc1 (stereo not drawn) [GSK1379712] | 132.02 | 102.90 | 9.98 | 6.91 | 111.30 | 98.27 | – | –
Cn1cc(-c2ccc3c(c2)CCN3C(=O)Cc2ccccc2Cl)c2c(N)ncnc21 [UNC10225172A] | – | – | 8.22 | 8.56 | 106.54 | 63.66 | 88.08 | 66.39
Cl.Fc1ccccc1COc1ccc(Nc2ncnc3ccc(-c4nnc(C(F)(F)F)o4)cc23)cc1Cl [UNC10225422A] | 100.75 | 98.62 | 3.54 | 5.47 | 104.09 | 121.67 | – | –
O=c1cc(N2CCOCC2)nc2n(Cc3cccc(F)c3)ccn12 [UNC10225332A] | – | – | 6.97 | 15.66 | 128.93 | 95.52 | 100.57 | 98.19
CNc1nccc(-c2ccc3c(N)n[nH]c3c2)n1 [GSK2206003] | 68.32 | 96.17 | 3.51 | 14.62 | 89.67 | 71.44 | – | –
CC(C)c1cc(-c2ccc3c(N)n[nH]c3c2)nc(N)n1 [GSK2250882] | 90.98 | 110.65 | 3.86 | 20.48 | 82.41 | 92.23 | – | –
CN(C)CCNS(=O)(=O)c1ccc(-c2ccnc3[nH]ccc23)cc1 [UNC10225452A] | 125.57 | 113.31 | 4.89 | 16.94 | 114.11 | 78.72 | – | –
COc1ccc(NC(=O)c2ccc(-c3cc(-c4nnc(C)o4)ccc3C)cc2)cc1 [UNC10225475A] | – | – | 3.99 | 13.72 | 97.70 | 99.11 | 95.33 | 98.26
COc1cccc(C2=C(N(C)c3ccccc3)C(=O)NC2=O)c1 [UNC10225293A] | 96.89 | 106.44 | 4.50 | 13.51 | 74.50 | 78.26 | – | –
CNc1ncnc2[nH]ncc12 [UNC10243862A] | – | – | 5.21 | 11.00 | 111.70 | 108.49 | 93.16 | 103.80
Cc1ccc(C)c(NC(=O)Nc2ccc(C)c(-c3ccc(C(=O)Nc4ccncc4)cc3)c2)c1 [UNC10225228A] | – | – | 7.17 | 10.54 | 74.48 | 105.64 | 84.26 | 79.30
Cc1cccc(Nc2nc(N[C@H]3CCNC3)ncc2C(N)=O)c1.Cl [UNC10225356A] | – | – | 10.40 | 8.51 | 117.33 | 97.71 | 128.58 | 110.55
CSc1cccc2c(-c3ccncn3)c(-c3ccc(F)cc3)nn12 [UNC10225437A] | – | – | 6.79 | 10.83 | 100.64 | 89.95 | 120.45 | 125.69
N#Cc1ccc(CCNc2nccc(-c3cccc(CN4CCNCC4)c3)n2)cc1 [GSK2137462] | 97.76 | 74.26 | 6.80 | 23.49 | 187.39 | 74.38 | – | –
CN(C(=O)c1ccc(-c2cc(-c3c[nH]nc3-c3ccccn3)ccn2)cc1)C1CCOCC1 [UNC10225473A] | 126.52 | 117.08 | 8.39 | 13.07 | 101.87 | 84.56 | – | –
COc1ccc(Nc2nccc(N3CCC(NC(=O)c4cc5ccccc5s4)C3)n2)cc1 (stereo not drawn) [GSK1379738] | 52.05 | 80.56 | 5.33 | 9.69 | 106.01 | 101.04 | – | –
